Test results reported in ChEMBL document CHEMBL1147043, “Comparative metabolism of radiolabeled muraglitazar in animals and humans by quantitative and qualitative metabolite profiling” (Drug Metab Dispos, 2007).

How the values were obtained:
[1] = tested on: Plasma; test: Biodistribution in orally dosed Beagle dog plasma assessed as O-demethyl muraglitazar level after 4 hrs by LC/MS analysis; type: ADME, organism-based, Canis lupus familiaris; details: in vivo, po
[2] = tested on: Rattus norvegicus; test: Biodistribution in orally dosed Sprague-Dawley rat urine assessed as muraglitazar glucuronide level by LC/MS analysis; type: ADME, organism-based; details: in vivo, po
[3] = Drug concentration in cynomolgus monkey urine assessed as recovery of radioactive dose at 2 mg/kg, po after 168 hrs; type: ADME, organism-based, Macaca fascicularis; design: dose 2 mg/kg, route oral; details: in vivo
[4] = tested on: Hepatocyte; test: Metabolic stability in human hepatocytes assessed as muraglitazar glucuronide level by LC/MS analysis relative to control; type: ADME, cell-based
[5] = Biodistribution in orally dosed cynomolgus monkey urine assessed as O-dealkyl-O-demethyl muraglitazar level by LC/MS analysis; type: ADME, organism-based, Macaca fascicularis; details: in vivo, po
[6] = Metabolic stability in CD1 mouse hepatocytes assessed as 8-hydroxy muraglitazar level by LC/MS analysis relative to control; type: ADME, cell-based, Hepatocyte
[7] = Biodistribution in orally dosed cynomolgus monkey feces assessed as muraglitazar 12-carboxylic acid level by LC/MS analysis; type: ADME, organism-based, Macaca fascicularis; details: in vivo, po
[8] = Bile excretion of compound in bile duct-cannulated orally dosed Sprague-Dawley rat within 24 hrs; type: ADME, organism-based; details: po, read-out: Activity
[9] = Biodistribution in orally dosed cynomolgus monkey urine assessed as 12,17-dihydroxy muraglitazar level by LC/MS analysis; type: ADME, organism-based, Macaca fascicularis; details: in vivo, po
[10] = Metabolic stability in CD1 mouse hepatocytes assessed as muraglitazar glucuronide level by LC/MS analysis relative to control; type: ADME, cell-based, Hepatocyte
[11] = tested on: Plasma; test: Biodistribution in orally dosed human plasma assessed as 12,17-dihydroxy muraglitazar level after 4 hrs by LC/MS analysis; type: ADME, organism-based; details: in vivo, po
[12] = tested on: Plasma; test: Biodistribution in orally dosed cynomolgus monkey plasma assessed as O-demethyl muraglitazar glucuronide level after 1 hr by LC/MS analysis; type: ADME, organism-based, Macaca fascicularis; details: in vivo, po
[13] = tested on: Plasma; test: Biodistribution in orally dosed Sprague-Dawley rat plasma assessed as O-demethyl muraglitazar level after 4 hrs by LC/MS analysis; type: ADME, organism-based; details: in vivo, po
[14] = Metabolic stability in cynomolgus monkey hepatocytes assessed as 9-hydroxy-O-demethyl muraglitazar level by LC/MS analysis relative to control; type: ADME, cell-based, Macaca fascicularis, Hepatocyte
[15] = Biodistribution in orally dosed cynomolgus monkey feces assessed as 9-hydroxy-O-demethyl muraglitazar level by LC/MS analysis; type: ADME, organism-based, Macaca fascicularis; details: in vivo, po
[16] = Metabolic stability in CD1 mouse hepatocytes assessed as 8,12-dihydroxy muraglitazar level by LC/MS analysis relative to control; type: ADME, cell-based, Hepatocyte
[17] = tested on: Plasma; test: Biodistribution in orally dosed cynomolgus monkey plasma assessed as muraglitazar glucuronide level after 1 hr by LC/MS analysis; type: ADME, organism-based, Macaca fascicularis; details: in vivo, po
[18] = Biodistribution in orally dosed Beagle dog feces assessed as O-demethyl muraglitazar level by LC/MS analysis; type: ADME, organism-based, Canis lupus familiaris; details: in vivo, po
[19] = tested on: Hepatocyte; test: Metabolic stability in human hepatocytes assessed as radioactivity recovaries at 25.6 ug/mL after 4 hrs; type: ADME, cell-based
[20] = tested on: Plasma; test: Biodistribution in orally dosed cynomolgus monkey plasma assessed as 17-dihydroxy muraglitazar level after 4 hrs by LC/MS analysis; type: ADME, organism-based, Macaca fascicularis; details: in vivo, po
[21] = Metabolic stability in CD1 mouse hepatocytes assessed as 9-hydroxy-O-demethyl muraglitazar level by LC/MS analysis relative to control; type: ADME, cell-based, Hepatocyte
[22] = Fecal excretion of compound in bile duct-cannulated orally dosed Sprague-Dawley rat within 24 hrs; type: ADME, organism-based; details: faeces, po, read-out: Activity
[23] = tested on: Rattus norvegicus; test: Biodistribution in orally dosed Sprague-Dawley rat feces assessed as O-demethyl muraglitazar level by LC/MS analysis; type: ADME, organism-based; details: in vivo, po
[24] = tested on: Hepatocyte; test: Metabolic stability in Sprague-Dawley rat hepatocytes assessed as O-dealkyl-O-demethyl muraglitazar level by LC/MS analysis relative to control; type: ADME, cell-based
[25] = tested on: Hepatocyte; test: Metabolic stability in Sprague-Dawley rat hepatocytes assessed as radioactivity recovaries at 25.6 ug/mL after 4 hrs; type: ADME, cell-based
[26] = tested on: Hepatocyte; test: Metabolic stability in human hepatocytes assessed as di-oxygenated muraglitazar level by LC/MS analysis relative to control; type: ADME, cell-based
[27] = tested on: Plasma; test: Biodistribution in orally dosed Sprague-Dawley rat plasma assessed as 17-dihydroxy muraglitazar level after 12 hrs by LC/MS analysis; type: ADME, organism-based; details: in vivo, po
[28] = Tmax in human at 10 mg, po after 72 hrs; type: ADME, organism-based; details: in vivo
[29] = Biodistribution in orally dosed cynomolgus monkey feces assessed as 8-hydroxy-O-demethyl muraglitazar level by LC/MS analysis; type: ADME, organism-based, Macaca fascicularis; details: in vivo, po
[30] = Biodistribution in orally dosed human feces assessed as 12-hydroxy muraglitazar level by LC/MS analysis; type: ADME, organism-based; details: in vivo, po
[31] = Drug concentration in bile duct-cannulated Sprague-Dawley rat bile at 10 mg/kg, po after 24 hrs; type: ADME, organism-based; design: dose 10 mg/kg, route oral; details: in vivo
[32] = Biodistribution in orally dosed human feces assessed as 12,17-dihydroxy muraglitazar level by LC/MS analysis; type: ADME, organism-based; details: in vivo, po
[33] = tested on: Plasma; test: Biodistribution in orally dosed cynomolgus monkey plasma assessed as 12-hydroxy-O-demethyl muraglitazar level after 4 hrs by LC/MS analysis; type: ADME, organism-based, Macaca fascicularis; details: in vivo, po
[34] = tested on: Rattus norvegicus; test: Biodistribution in orally dosed Sprague-Dawley rat urine assessed as O-dealkyl muraglitazar level by LC/MS analysis; type: ADME, organism-based; details: in vivo, po
[35] = tested on: Plasma; test: Biodistribution in orally dosed human plasma assessed as […] muraglitazar level after 4 hrs by LC/MS analysis; type: ADME, organism-based; details: in vivo, po
[36] = Fecal excretion of compound in orally dosed human within 48 hrs; type: ADME, organism-based; details: faeces, po, read-out: Activity
[37] = Metabolic stability in CD1 mouse hepatocytes assessed as O-Dealkyl muraglitazar level by LC/MS analysis relative to control; type: ADME, cell-based, Hepatocyte
[38] = Metabolic stability in cynomolgus monkey hepatocytes assessed as O-dealkyl-O-demethyl muraglitazar level by LC/MS analysis relative to control; type: ADME, cell-based, Macaca fascicularis, Hepatocyte
[39] = tested on: Rattus norvegicus; test: Biodistribution in orally dosed Sprague-Dawley rat urine assessed as 9-hydroxy-O-demethyl muraglitazar level by LC/MS analysis; type: ADME, organism-based; details: in vivo, po
[40] = Drug concentration in bile duct-cannulated Sprague-Dawley rat urine assessed as recovery of radioactive dose at 11 mg/kg, po after 24 hrs; type: ADME, organism-based; design: dose 11 mg/kg, route oral; details: in vivo
[41] = tested on: Plasma; test: Biodistribution in orally dosed human plasma assessed as 12-dihydroxy muraglitazar level after 4 hrs by LC/MS analysis; type: ADME, organism-based; details: in vivo, po
[42] = tested on: Plasma; test: Biodistribution in orally dosed Sprague-Dawley rat plasma assessed as 12-dihydroxy muraglitazar level after 12 hrs by LC/MS analysis; type: ADME, organism-based; details: in vivo, po
[43] = tested on: Plasma; test: Biodistribution in orally dosed Beagle dog plasma assessed as 12-hydroxy-O-demethyl muraglitazar level after 1 hr by LC/MS analysis; type: ADME, organism-based, Canis lupus familiaris; details: in vivo, po
[44] = Metabolic stability in cynomolgus monkey hepatocytes assessed as O-demethyl muraglitazar level by LC/MS analysis relative to control; type: ADME, cell-based, Macaca fascicularis, Hepatocyte
[45] = Metabolic stability in cynomolgus monkey hepatocytes assessed as 12-hydroxy muraglitazar level by LC/MS analysis relative to control; type: ADME, cell-based, Macaca fascicularis, Hepatocyte
[46] = tested on: Rattus norvegicus; test: Biodistribution in orally dosed Sprague-Dawley rat urine assessed as 8,12-dihydroxy muraglitazar level by LC/MS analysis; type: ADME, organism-based; details: in vivo, po
[47] = tested on: Rattus norvegicus; test: Biodistribution in orally dosed Sprague-Dawley rat urine assessed as 8-hydroxy muraglitazar level by LC/MS analysis; type: ADME, organism-based; details: in vivo, po
[48] = tested on: Plasma; test: Biodistribution in orally dosed Beagle dog plasma assessed as O-demethyl muraglitazar level after 1 hr by LC/MS analysis; type: ADME, organism-based, Canis lupus familiaris; details: in vivo, po
[49] = tested on: Plasma; test: Biodistribution in orally dosed cynomolgus monkey plasma assessed as 12-dihydroxy muraglitazar level after 1 hr by LC/MS analysis; type: ADME, organism-based, Macaca fascicularis; details: in vivo, po
[50] = tested on: Rattus norvegicus; test: Biodistribution in orally dosed Sprague-Dawley rat urine assessed as O-demethyl muraglitazar glucuronide level by LC/MS analysis; type: ADME, organism-based; details: in vivo, po
[51] = Biodistribution in orally dosed cynomolgus monkey feces assessed as O-dealkyl muraglitazar level by LC/MS analysis; type: ADME, organism-based, Macaca fascicularis; details: in vivo, po
[52] = Drug concentration in bile duct-cannulated CD1 mouse feces assessed as recovery of radioactive dose at 1 mg/kg, po after 24 hrs; type: ADME, organism-based; design: dose 1 mg/kg, route oral; details: in vivo

SMILES: COc1ccc(OC(=O)N(CC(=O)O)Cc2ccc(OCCc3nc(-c4ccccc4)oc3C)cc2)cc1 [MURAGLITAZAR]
- Drug uptake [1]: 3%
- Drug uptake [2]: < 0.01%
- Drug uptake [3]: 3.7%
- Drug uptake [4]: 1.1%
- Drug uptake [5]: 0.33%
- Drug uptake [6]: 0.3%
- Drug uptake [7]: 1.61%
- dose excreted at 24 h [8]: 65%
- Drug uptake [9]: 0.13%
- Drug uptake [10]: 5.2%
- Drug uptake [11]: < 0.05%
- Drug uptake [12]: 0.1%
- Drug uptake [13]: 2.1%
- Drug uptake [14]: 0.5%
- Drug uptake [15]: 0.32%
- Drug uptake [16]: 0.3%
- Drug uptake [17]: 0.1%
- Drug uptake [18]: 24.92%
- Stability [19]: 98.7%
- Drug uptake [20]: 16.2%
- Drug uptake [21]: 1.2%
- dose excreted at 24 h [22]: < 1%
- Drug uptake [23]: 34.2%
- Drug uptake [24]: 0.3%
- Stability [25]: 96.5%
- Drug uptake [26]: 4.5%
- Drug uptake [27]: < 0.05%
- Tmax [28]: 1 h
- Drug uptake [29]: 1.29%
- Drug uptake [30]: 8.2%
- Drug uptake [31]: 0.289 mgequiv/ml
- Drug uptake [32]: 0.56%
- Drug uptake [33]: 2.9%
- Drug uptake [34]: 0.22%
- Drug uptake [35]: < 0.05%
- dose excreted at 48 h [36]: 25%
- Drug uptake [37]: 23.6%
- Drug uptake [38]: < 0.2%
- Drug uptake [39]: 0.43%
- Drug uptake [40]: 0.98%
- Drug uptake [41]: 1%
- Drug uptake [42]: 0.2%
- Drug uptake [43]: 1%
- Drug uptake [44]: 2.1%
- Drug uptake [45]: 0.8%
- Drug uptake [46]: < 0.01%
- Drug uptake [47]: < 0.01%
- Drug uptake [48]: 1%
- Drug uptake [49]: 0.9%
- Drug uptake [50]: < 0.01%
- Drug uptake [51]: 2.81%
- Drug uptake [52]: 8.2%
